From paper PMC3799614, “Combinatorial Engineering of Dextransucrase Specificity” (PLoS ONE, 2013)

Tested on: T1, DSR-S vardel Δ4N (Thio-DSR-S vardel Δ4N-His)
T1 construct: gene dsrS; truncated form (variable region and part of C-terminal region deleted)
Assay: initial velocity, released fructose by HPLC
Type: biochemical, Leuconostoc mesenteroides
Conditions: 50 mM sodium acetate pH 5.2, 0.05 g/L CaCl2, 25 °C; 10-600 mM sucrose; fit with substrate inhibition
Excerpt: initial velocity, released fructose by HPLC on DSR-S vardel Δ4N (Thio-DSR-S vardel Δ4N-His)

Km: 115.8 mM
SMILES: OC[C@H]1O[C@@](CO)(O[C@H]2O[C@H](CO)[C@@H](O)[C@H](O)[C@H]2O)[C@@H](O)[C@@H]1O [sucrose]
